# Assay results taken from patent publication US20230131966A1, “FUNGICIDAL AMIDES” (FMC Corporation, priority 2020, published 2023).
# What was measured:
# Type in all cases: in vivo
# [1] = system: Puccinia recondita f. sp. tritici; test: Test B: wheat leaf rust control on wheat seedlings; conditions: wheat seedlings, 100 = 100% disease control, 0 = no control
# [2] = system: Botrytis cinerea; test: Test E: tomato Botrytis control on tomato seedlings; conditions: 250 ppm, 100 = 100% disease control, 0 = no control
# [3] = system: Phytophthora infestans; test: whole plant or invertebrate; conditions: tomato seedlings, 100 = 100% disease control, 0 = no control; for Test F disease control rating: 250 ppm
# [4] = system: Zymoseptoria tritici; test: Test C: wheat leaf blotch control on wheat seedlings; conditions: 250 ppm, wheat seedlings, 100 = 100% disease control, 0 = no control
# [5] = system: Phakopsora pachyrhizi; test: Test A: Asian soybean rust control on soybean seedlings; conditions: soybean seedlings, 100 = 100% disease control, 0 = no control
# [6] = system: Erysiphe graminis f. sp. tritici; test: Test G: wheat powdery mildew control on wheat seedlings; conditions: 250 ppm, 100 = 100% disease control, 0 = no control
# [7] = system: Plasmopara viticola; test: Test D: grape downy mildew control on grape seedlings; conditions: 250 ppm, 100 = 100% disease control, 0 = no control
SMILES,Test B disease control rating ([1]; 250 ppm) [%],Test E disease control rating [2] [%],Test F disease control rating [3] [%],Test C disease control rating [4] [%],Test A disease control rating ([5]; 250 ppm) [%],Test G disease control rating [6] [%],other results
"COc1ccnc(C(=O)N[C@@H](C)C(=O)OC(C)c2ccccc2Oc2ccccc2)c1O (single isomer, unassigned) [Compound 106]",92,16,0,90,100,0,–
"COc1ccnc(C(=O)N[C@@H](C)C(=O)OC(C)c2ccc(C3CCCCC3)cc2)c1OC(C)=O (single isomer, unassigned) [Compound 86]",–,0,0,65,73,0,Test D disease control rating [7]: 24%
"COc1ccnc(C(=O)N[C@@H](C)C(=O)OC(C)c2ccccc2Cc2ccccc2)c1O (single isomer, unassigned) [Compound 111]",9,16,0,56,97,0,–
"COc1ccnc(C(=O)N[C@@H](C)C(=O)OC(C)c2cccc3ccccc23)c1OC(C)=O (single isomer, unassigned) [Compound 115]",55,0,0,86,89,0,–
"COc1ccnc(C(=O)N[C@@H](C)C(=O)OC(C)C2CCCCC2)c1O (single isomer, unassigned) [Compound 52]",–,–,–,–,–,–,Test B disease control rating ([1]; 50 ppm): 9%; Test A disease control rating ([5]; 50 ppm): 32%
"COc1ccnc(C(=O)N[C@@H](C)C(=O)OC(C)C2CCCCC2)c1O (single isomer, unassigned) [Compound 51]",–,–,–,–,–,–,Test B disease control rating ([1]; 50 ppm): 100%; Test A disease control rating ([5]; 50 ppm): 100%
"COc1ccnc(C(=O)N[C@@H](C)C(=O)OC(C)c2ccc(F)cc2Cc2ccc(F)cc2)c1O (single isomer, unassigned) [Compound 54]",68,0,0,–,79,0,Test D disease control rating [7]: 55%
COc1ccnc(C(=O)NC(C)C(=O)OC(C)c2ccc(C3CCCC3)cc2)c1O (mixture of isomers) [Compound 65],–,–,–,–,–,–,Test B disease control rating ([1]; 50 ppm): 98%; Test A disease control rating ([5]; 50 ppm): 100%
"COc1ccnc(C(=O)N[C@@H](C)C(=O)OC(C)C2CCCCC2)c1OC(C)=O (single isomer, unassigned) [Compound 88]",–,0,0,58,99,0,Test D disease control rating [7]: 43%
CCOC(=O)c1cnn(-c2ccc(C(C)OC(=O)C(C)NC(=O)c3nccc(OC)c3O)cc2)c1 (mixture of isomers) [Compound 50],68,–,–,54,–,–,–
"COc1ccnc(C(=O)N[C@@H](C)C(=O)OC(C)c2ccccc2Oc2ccccc2)c1O (single isomer, unassigned) [Compound 105]",28,0,0,67,98,0,–
"COc1ccnc(C(=O)N[C@@H](C)C(=O)OC(C)c2ccccc2Cc2ccccc2)c1OC(C)=O (single isomer, unassigned) [Compound 112]",55,0,0,83,0,0,–
"COc1ccnc(C(=O)N[C@@H](C)C(=O)OC(C)c2ccc(F)cc2Cc2ccc(F)cc2)c1O (single isomer, unassigned) [Compound 41]",100,0,24,–,100,0,Test D disease control rating [7]: 70%
COc1ccnc(C(=O)NC(C)C(=O)OC(C)c2ccc(C3CC3)cc2)c1OC(C)=O (mixture of isomers) [Compound 71],–,–,–,–,–,–,Test A disease control rating ([5]; 50 ppm): 89%
"COc1ccnc(C(=O)N[C@@H](C)C(=O)OC(C)c2ccccc2Oc2ccccc2)c1OC(C)=O (single isomer, unassigned) [Compound 107]",98,0,0,87,100,0,–
"COc1ccnc(C(=O)N[C@@H](C)C(=O)OC(C)c2ccc(C3CCCCC3)cc2)c1O (single isomer, unassigned) [Compound 73]",–,–,–,–,–,–,Test B disease control rating ([1]; 50 ppm): 41%; Test A disease control rating ([5]; 50 ppm): 0%
"COc1ccnc(C(=O)N[C@@H](C)C(=O)OC(C)c2ccc(C3CCCCC3)cc2)c1O (single isomer, unassigned) [Compound 74]",–,–,–,–,–,–,Test B disease control rating ([1]; 50 ppm): 99%; Test A disease control rating ([5]; 50 ppm): 100%
COc1ccnc(C(=O)NC(C)C(=O)OC(C)c2ccc3ccccc3c2)c1O (racemic) [Compound 76],–,–,–,–,–,–,"pest or weed control at 250 ppm ([1]; Puccinia recondita, 250 ppm, read-out: Test B disease control rating): 100%; pest or weed control at 250 ppm ([2]; Botrytis cinerea, read-out: Test E disease control rating): 0%; pest or weed control at 250 ppm ([3]; Phytophthora infestans, in Solanum lycopersicum, read-out: Test F disease control rating, 250 ppm): 0%; pest or weed control at 250 ppm ([4]; Zymoseptoria tritici, read-out: Test C disease control rating): 99%; pest or weed control at 250 ppm ([5]; Phakopsora pachyrhizi, 250 ppm, read-out: Test A disease control rating): 100%"
"COc1ccnc(C(=O)N[C@@H](C)C(=O)OC(C)c2ccccc2Cc2ccccc2)c1O (single isomer, unassigned) [Compound 109]",98,98,0,85,100,0,–
COc1ccnc(C(=O)NC(C)C(=O)OC(C)c2ccc(F)cc2Cc2ccc(F)cc2)c1O (mixture of isomers) [Compound 42],100,0,0,–,100,0,Test D disease control rating [7]: 66%
COc1ccnc(C(=O)NC(C)C(=O)OC(C)c2ccccc2Oc2ccc(F)cc2)c1O (mixture of isomers) [Compound 55],98,0,0,–,100,13,Test D disease control rating [7]: 52%
COc1ccnc(C(=O)N[C@@H](C)C(=O)OC(c2ccc(C3CCCCC3)cc2)C(C)C)c1OC(C)=O (stereo partly shown) [Compound 96],–,–,–,–,–,–,Test B disease control rating ([1]; 50 ppm): 95%; Test A disease control rating ([5]; 50 ppm): 94%
COc1ccnc(C(=O)NC(C)C(=O)OC(C)C23CC4CC(CC(C4)C2)C3)c1O (racemic) [Compound 44],–,–,–,–,–,–,"pest or weed control at 50 ppm ([1]; Puccinia recondita, 50 ppm, read-out: Test B disease control rating): 55%; pest or weed control at 50 ppm ([5]; Phakopsora pachyrhizi, 50 ppm, read-out: Test A disease control rating): 75%"
"COc1ccnc(C(=O)N[C@@H](C)C(=O)OC(C)c2ccccc2Cc2ccccc2)c1OC(C)=O (single isomer, unassigned) [Compound 110]",99,0,0,92,100,0,–
"COc1ccnc(C(=O)N[C@@H](C)C(=O)OC(C)c2ccccc2Oc2ccccc2)c1OC(C)=O (single isomer, unassigned) [Compound 108]",32,0,0,75,43,0,–
COc1ccnc(C(=O)NC(C)C(=O)OC(C)C2CCC(C(F)(F)F)CC2)c1O (mixture of isomers) [Compound 179],100,0,0,99,100,–,Test D disease control rating [7]: 82%
"COc1ccnc(C(=O)N[C@@H](C)C(=O)OC(C)c2ccccc2Oc2ccc(F)cc2)c1O (single isomer, unassigned) [Compound 59]",100,0,0,–,100,13,Test D disease control rating [7]: 66%
